System: 415267-285-R-J2-PDC complex spheroid viability
Assay: Anticancer human tumor 415267-285-R-J2-PDC patient-derived breast carcinoma cell line growth inhibition [POLQ]
Details: for IC50: curve of first compound; for viability, T/C: stronger effect = lower value
Method in brief: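 Three-cell-type spheroids modelling solid tumor plus stroma served as the readout system; POL inhibitors were tested individually and in combination, concentration ranges set by clinical Cmax where known.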

[1] = second compound 0.0316 µM, first compound 0.0316 µM
[2] = second compound 0.0316 µM, first compound 0.1 µM
[3] = second compound 0.0316 µM, first compound 0.316 µM
[4] = second compound 0.0316 µM, first compound 1 µM
[5] = second compound 0.0316 µM, first compound 3.16 µM
[6] = second compound 0.0316 µM, first compound 10 µM
[7] = second compound 0.1 µM, first compound 0.0316 µM
[8] = second compound 0.1 µM, first compound 0.1 µM
[9] = second compound 0.1 µM, first compound 0.316 µM
[10] = second compound 0.1 µM, first compound 1 µM
[11] = second compound 0.1 µM, first compound 3.16 µM
[12] = second compound 0.1 µM, first compound 10 µM
[13] = second compound 0.316 µM, first compound 0.0316 µM
[14] = second compound 0.316 µM, first compound 0.1 µM
[15] = second compound 0.316 µM, first compound 0.316 µM
[16] = second compound 0.316 µM, first compound 1 µM
[17] = second compound 0.316 µM, first compound 3.16 µM
[18] = second compound 0.316 µM, first compound 10 µM
[19] = second compound 1 µM, first compound 0.0316 µM
[20] = second compound 1 µM, first compound 0.1 µM
[21] = second compound 1 µM, first compound 0.316 µM
[22] = second compound 1 µM, first compound 1 µM
[23] = second compound 1 µM, first compound 3.16 µM
[24] = second compound 1 µM, first compound 10 µM
[25] = second compound 3.16 µM, first compound 0.0316 µM
[26] = second compound 3.16 µM, first compound 0.1 µM
[27] = second compound 3.16 µM, first compound 0.316 µM
[28] = second compound 3.16 µM, first compound 1 µM
[29] = second compound 3.16 µM, first compound 3.16 µM
[30] = second compound 3.16 µM, first compound 10 µM
[31] = second compound 10 µM, first compound 0.0316 µM
[32] = second compound 10 µM, first compound 0.1 µM
[33] = second compound 10 µM, first compound 0.316 µM
[34] = second compound 10 µM, first compound 1 µM
[35] = second compound 10 µM, first compound 3.16 µM
[36] = second compound 10 µM, first compound 10 µM
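Note: spheroids exposed to compounds for one week before readout.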
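Throughout, for viability, T/C: luminescence used as stand-in measure of viable cells; 100% = DMSO vehicle control viability.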

C#Cc1c(F)ccc2cc(O)cc(-c3ncc4c(N5CC6CCC(C5)N6)nc(OCC56CCCN5CC(F)C6)nc4c3F)c12 (centres undefined) + Nc1ccc(C#CCN(C(=O)Cc2ncc(C(F)(F)F)cc2C(F)(F)F)c2ccc(F)cc2)nn1
IC50 (second compound 0.0316 µM): > 10 µM | IC50 (second compound 0.1 µM): > 10 µM | IC50 (second compound 0.316 µM): > 10 µM | IC50 (second compound 1 µM): > 10 µM | IC50 (second compound 3.16 µM): > 10 µM | IC50 (second compound 10 µM): > 10 µM | viability, T/C [1]: 105% | viability, T/C [2]: 110% | viability, T/C [3]: 84% | viability, T/C [4]: 101% | viability, T/C [5]: 97% | viability, T/C [6]: 99.5% | viability, T/C [7]: 100% | viability, T/C [8]: 96% | viability, T/C [9]: 94.4% | viability, T/C [10]: 98.6% | viability, T/C [11]: 97.3% | viability, T/C [12]: 92.3% | viability, T/C [13]: 114% | viability, T/C [14]: 110% | viability, T/C [15]: 113% | viability, T/C [16]: 111% | viability, T/C [17]: 98.5% | viability, T/C [18]: 102% | viability, T/C [19]: 105% | viability, T/C [20]: 102% | viability, T/C [21]: 95% | viability, T/C [22]: 112% | viability, T/C [23]: 96.1% | viability, T/C [24]: 105% | viability, T/C [25]: 113% | viability, T/C [26]: 106% | viability, T/C [27]: 105% | viability, T/C [28]: 106% | viability, T/C [29]: 115% | viability, T/C [30]: 111% | viability, T/C [31]: 97.7% | viability, T/C [32]: 103% | viability, T/C [33]: 102% | viability, T/C [34]: 96.4% | viability, T/C [35]: 102% | viability, T/C [36]: 116%

CC1COCCN1c1cc(C2(O)CC3CCC(C2)O3)c2cnn(-c3ccn[nH]3)c2n1 (centres undefined) + Nc1ccc(C#CCN(C(=O)Cc2ncc(C(F)(F)F)cc2C(F)(F)F)c2ccc(F)cc2)nn1
IC50 (second compound 0.0316 µM): < 0.0316 µM | IC50 (second compound 0.1 µM): < 0.0316 µM | IC50 (second compound 0.316 µM): < 0.0316 µM | IC50 (second compound 1 µM): < 0.0316 µM | IC50 (second compound 3.16 µM): < 0.0316 µM | IC50 (second compound 10 µM): < 0.0316 µM | viability, T/C [1]: 19.2% | viability, T/C [2]: 6.63% | viability, T/C [3]: 4.19% | viability, T/C [4]: 3.59% | viability, T/C [5]: 4.18% | viability, T/C [6]: 5.72% | viability, T/C [7]: 22% | viability, T/C [8]: 6.34% | viability, T/C [9]: 5.38% | viability, T/C [10]: 4.69% | viability, T/C [11]: 3.81% | viability, T/C [12]: 2.94% | viability, T/C [13]: 22.7% | viability, T/C [14]: 6.83% | viability, T/C [15]: 4.18% | viability, T/C [16]: 3.94% | viability, T/C [17]: 3.9% | viability, T/C [18]: 2.58% | viability, T/C [19]: 18.7% | viability, T/C [20]: 5.19% | viability, T/C [21]: 4.87% | viability, T/C [22]: 3.6% | viability, T/C [23]: 3.79% | viability, T/C [24]: 2.6% | viability, T/C [25]: 16.6% | viability, T/C [26]: 5.61% | viability, T/C [27]: 4.81% | viability, T/C [28]: 3.47% | viability, T/C [29]: 3.8% | viability, T/C [30]: 3.42% | viability, T/C [31]: 16.1% | viability, T/C [32]: 6.98% | viability, T/C [33]: 5.96% | viability, T/C [34]: 4.12% | viability, T/C [35]: 3.92% | viability, T/C [36]: 3.05%
